From patent EP4772510A2, “BENZAZEPINONE COMPOUND AND USE THEREOF” (HANGZHOU BIO-SINCERITY PHARMA-TECHCO., LTD., priority 2023, dated 2025) come the findings set out here.

One data set has as its system HT-29 cells. Kind of data set: Inhibition of TNF-α-induced necroptosis of HT-29 cells (SRB method). Format: cell-based, human. Conditions: 18 h. A digest of the protocol: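 HT-29 cells (3 × 10^4/well, 24 h) were treated 18 h with compound (8 three-fold dilutions, 1000.00-0.46 nM, duplicate) plus TNF-α 20 ng/mL, BV6 2 µM and Z-VAD-FMK 20 µM final, at 37 °C. Viability was read by SRB absorbance; EC50 values were fitted.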

A short description of the next data set: in vivo. The following applies: rat.
[1] abbreviates: Homo sapiens, HT-29, TNF-α 20 ng/mL + BV6 2 µM + Z-VAD-FMK 20 µM.
[2] abbreviates: male, SD, plasma, intravenous, 0.5 mg/kg.
The mark [3] stands for this setting: male, SD, plasma, oral, 5 mg/kg.
Where [4] appears, read: TNF-α 20 ng/mL + BV6 2 µM + Z-VAD-FMK 20 µM.

Protocol for in vivo: Example 59: Pharmacokinetic Experiment of Compounds in SD Rats
SD rats, male, 6-8 weeks old, purchased from Zhejiang Vital River Laboratory Animal Technology Co., Ltd., production license No.: SCXK (Zhejiang) 2019-0001. The animals were maintained in an SPF-grade animal room of Hangzhou Bio-Sincerity Pharma-Tech Co., Ltd., with the experimental animal use license No. of SYXK (Zhejiang) 2021-0014. The animals were used after being acclimatized for at least one week. All experiments were performed in strict compliance with the regulations on experimental animals.
Four hours after administration, food was provided.
After administration to SD rats, about 300 µL of blood was collected from the orbit of each animal and anticoagulated with EDTA-Na2. […] The collected blood was placed in an ice bath and centrifuged within 1 h to separate plasma (centrifugation conditions: 2000× g, 10 min, 4 °C). 50 µL of plasma sample was taken, subjected to protein precipitation, and then assayed by UHPLC-MS. The assay data were analyzed and processed using WinNonLin8.1 pharmacokinetic software to obtain pharmacokinetic parameters.

On to `CN1C(=O)[C@@H](NC(=O)c2nnc(Cc3ccccc3)[nH]2)COc2ccccc21` [GSK2982772, (S)-5-benzyl-N-(5-methyl-4-oxo-2,3,4,5-tetrahydrobenzo[b][1,4]oxazepin-3-yl)-4H-1,2,4-triazole-3-carboxamide, reference compound], for which the concentration for a half-maximal effect (EC50) in the data set with HT-29 cells (setting [1]) lay in the range of 5 to 10 nM. Besides, in the data set “in vivo” (setting [2]), the exposure AUC(0-t) came out at 5560 ng·h/mL, the highest level (Cmax) was 4320 ng/mL, the clearance turned out to be 1.5 mL/min/kg and the half-life was 3.28 h. In “in vivo” (setting [3]), the exposure AUC(0-t) was 21700 ± 6530 ng·h/mL, the CL/F is 4.03 ± 1.05 mL/min/kg, the Cmax is 5820 ± 1210 ng/mL and the half-life is 3.06 ± 0.41 h.
For `Cn1cc(C#Cc2cc3c4c(c2)CCN4C(=O)C(NC(=O)c2ncn(Cc4c(F)cccc4F)n2)CC3)cn1` (centres unmarked) [III-1, 1-(2,6-difluorobenzyl)-N-(9-((1-methyl-1H-pyrazol-4-yl)ethynyl)-4-oxo-1,2,3,4,6,7-hexahydroazepino[3,2,1-hi]indol-3-yl)-1H-1,2,4-triazole-3-carboxamide], the 50% effective concentration (EC50) in the data set with HT-29 cells (setting [1]) was under 5 nM. Besides, in the data set “in vivo” (in vivo, iv, 0.5 mg/kg), the area under the curve AUC(0-t) was found to be 1980 ± 204 ng·h/mL, the Cmax came to 1430 ± 181 ng/mL, the clearance was 5.54 ± 2.45 mL/min/kg and the half-life was 2.38 ± 1.76 h. Moreover, in “in vivo” (in vivo, po, 5 mg/kg), the AUC(0-t) was 22600 ± 2370 ng·h/mL, the apparent clearance (CL/F) is 3.7 ± 0.39 mL/min/kg, the concentration peaked (Cmax) at 4100 ± 520 ng/mL and the half-life was 2.94 ± 0.16 h.
On to `Cn1cc(C#Cc2cc3c4c(c2)CCN4C(=O)C(NC(=O)c2ncn(Cc4cc(F)ccc4F)n2)CC3)cn1` (centres unmarked) [III-10, 1-(2,5-difluorobenzyl)-N-(9-((1-methyl-1H-pyrazol-4-yl)ethynyl)-4-oxo-1,2,3,4,6,7-hexahydroazepino[3,2,1-hi]indol-3-yl)-1H-1,2,4-triazole-3-carboxamide], for which the concentration for a half-maximal effect (EC50) in the data set with HT-29 cells (setting [1]) is under 5 nM. In “in vivo” (in vivo, iv, 0.5 mg/kg), this compound gave an AUC(0-t) of 5340 ± 1330 ng·h/mL, a Cmax of 1940 ± 319 ng/mL, a clearance of 1.6 ± 0.39 mL/min/kg and a half-life of 2.37 ± 0.64 h. In “in vivo” (in vivo, po, 5 mg/kg), this compound showed an exposure AUC(0-t) of 27700 ± 1560 ng·h/mL, a CL/F of 3.01 ± 0.18 mL/min/kg, a Cmax of 4660 ± 132 ng/mL and a half-life of 2.57 ± 0.69 h.
Turning to `Cn1cc(C#Cc2cc3c4c(c2)CCN4C(=O)C(NC(=O)c2ncn(Cc4ccc(F)c(F)c4)n2)CC3)cn1` (centres unmarked) [III-12, 1-(3,4-difluorobenzyl)-N-(9-((1-methyl-1H-pyrazol-4-yl)ethynyl)-4-oxo-1,2,3,4,6,7-hexahydroazepino[3,2,1-hi]indol-3-yl)-1H-1,2,4-triazole-3-carboxamide], the 50% effective concentration (EC50) in the data set with HT-29 cells (setting [1]) fell in the range of 10 to 100 nM. In the data set “in vivo” (in vivo, iv, 0.5 mg/kg), this compound gave an area under the curve AUC(0-t) of 8830 ± 1290 ng·h/mL, a Cmax of 1300 ± 23.2 ng/mL, a clearance of 0.91 ± 0.18 mL/min/kg and a half-life of 5.78 ± 2.23 h. Besides, in “in vivo” (in vivo, po, 5 mg/kg), the AUC(0-t) amounted to 60400 ± 9300 ng·h/mL, the CL/F was found to be 1.39 ± 0.2 mL/min/kg, the highest level (Cmax) was 7330 ± 781 ng/mL and the half-life was 3.19 ± 0.52 h.
For the compound `O=C(NC1CCc2cc(C#Cc3cnn(C(F)F)c3)cc3c2N(CC3)C1=O)c1ncn(Cc2c(F)cccc2F)n1` (centres unmarked) [III-17, 1-(2,6-difluorobenzyl)-N-(9-((1-(difluoromethyl)-1H-pyrazol-4-yl)ethynyl)-4-oxo-1,2,3,4,6,7-hexahydroazepino[3,2,1-hi]indol-3-yl)-1H-1,2,4-triazole-3-carboxamide], the EC50 in the data set with HT-29 cells (setting [4]) was under 5 nM.
For `O=C(NC1CCc2cc(C#Cc3cnn(C(F)F)c3)cc3c2N(CC3)C1=O)c1ncn(Cc2cc(F)ccc2F)n1` (centres unmarked) [III-19, 1-(2,5-difluorobenzyl)-N-(9-((1-(difluoromethyl)-1H-pyrazol-4-yl)ethynyl)-4-oxo-1,2,3,4,6,7-hexahydroazepino[3,2,1-hi]indol-3-yl)-1H-1,2,4-triazole-3-carboxamide], the concentration giving a half-maximal response (EC50) with HT-29 cells (setting [1]) is under 5 nM. In the data set “in vivo” (in vivo, iv, 0.5 mg/kg), this compound had an AUC(0-t) of 703 ± 191 ng·h/mL, a Cmax of 662 ± 110 ng/mL, a clearance of 12.2 ± 3.04 mL/min/kg and a half-life of 1.37 ± 0.2 h. In the data set “in vivo” (in vivo, po, 5 mg/kg), this compound showed an AUC(0-t) of 8130 ± 3570 ng·h/mL, an apparent clearance (CL/F) of 10.3 ± 3.12 mL/min/kg, a Cmax of 1480 ± 545 ng/mL and a half-life of 2.96 ± 0.69 h.
Regarding `O=C(NC1CCc2cc(C#Cc3cnn(C(F)F)c3)cc3c2N(CC3)C1=O)c1ncn(Cc2ccccc2F)n1` (centres unmarked) [III-21, N-(9-((1-(difluoromethyl)-1H-pyrazol-4-yl)ethynyl)-4-oxo-1,2,3,4,6,7-hexahydroazepino[3,2,1-hi]indol-3-yl)-1-(2-fluorobenzyl)-1H-1,2,4-triazole-3-carboxamide], the EC50 in the data set with HT-29 cells (setting [1]) was under 5 nM. In the data set “in vivo” (in vivo, iv, 0.5 mg/kg), this compound gave an area under the curve AUC(0-t) of 651 ± 66.4 ng·h/mL, a Cmax of 619 ± 65.8 ng/mL, a clearance of 12.8 ± 1.27 mL/min/kg and a half-life of 1.19 ± 0.1 h. Further, in “in vivo” (in vivo, po, 5 mg/kg), the AUC(0-t) was 6250 ± 2790 ng·h/mL, the CL/F came out at 14.9 ± 6.92 mL/min/kg, the peak level (Cmax) was 1280 ± 509 ng/mL and the half-life was 2.66 ± 0.69 h.
On to `C#Cc1cc2c3c(c1)CCN3C(=O)C(NC(=O)c1ncn(Cc3c(F)cccc3F)n1)CC2` (centres unmarked) [III-26, 1-(2,6-difluorobenzyl)-N-(9-ethynyl-4-oxo-1,2,3,4,6,7-hexahydroazepino[3,2,1-hi]indol-3-yl)-1H-1,2,4-triazole-3-carboxamide], for which the EC50 with HT-29 cells (setting [1]) was under 5 nM. In the data set “in vivo” (in vivo, iv, 0.5 mg/kg), this compound gave an area under the curve AUC(0-t) of 550 ± 34.5 ng·h/mL, a Cmax of 896 ± 158 ng/mL, a clearance of 15.2 ± 0.98 mL/min/kg and a half-life of 0.44 ± 0.03 h. In the data set “in vivo” (in vivo, po, 5 mg/kg), the AUC(0-t) amounted to 2810 ± 177 ng·h/mL, the CL/F amounted to 29.6 ± 1.95 mL/min/kg, the Cmax was found to be 1370 ± 389 ng/mL and the half-life is 3.98 ± 2.49 h.
For the compound “N-(9-((1-(difluoromethyl)-1H-pyrazol-4-yl)ethynyl)-4-oxo-1,2,3,4,6,7-hexahydroazepino[3,2,1-hi]indol-3-yl)-1-(4-methylbenzyl)-1H-1,2,4-triazole-3-carboxamide [III-25]”, the EC50 in the data set on HT-29 cells (setting [4]) was 5 to 10 nM.
